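Exposure lasted 48 hours, with cells grown in 96-well plates and compounds tested at five concentrations. GI50 marks 50% less growth. TGI: total growth inhibition.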
Experiments:
Assay in all cases: DTP human tumour cell line panel, 48 h
SK-OV-3 ovarian = tested on: SK-OV-3 ovarian
OVCAR-5 ovarian = tested on: OVCAR-5 ovarian
ACHN renal = tested on: ACHN renal
TK-10 renal = tested on: TK-10 renal
HOP-92 NSCLC = tested on: HOP-92 NSCLC
MCF7 breast = tested on: MCF7 breast
HT29 colon = tested on: HT29 colon
SNB-75 CNS = tested on: SNB-75 CNS

Row | SMILES | GI50 (SK-OV-3 ovarian) [µM] | TGI (SK-OV-3 ovarian) [µM] | GI50 (OVCAR-5 ovarian) [µM] | TGI (OVCAR-5 ovarian) [µM] | GI50 (ACHN renal) [µM] | TGI (ACHN renal) [µM] | GI50 (TK-10 renal) [µM] | TGI (TK-10 renal) [µM] | GI50 (HOP-92 NSCLC) [µM] | TGI (HOP-92 NSCLC) [µM] | GI50 (MCF7 breast) [µM] | TGI (MCF7 breast) [µM] | GI50 (HT29 colon) [µM] | TGI (HT29 colon) [µM] | GI50 (SNB-75 CNS) [µM] | TGI (SNB-75 CNS) [µM]
1 | COc1cc2c(cc1OCCCCCOc1cc(-c3ccc(F)cc3)nc(C)n1)N=C[C@@H]1CCCN1C2=O | > 51.6 | > 78.8 | > 100 | > 100 | > 37.6 | > 68.6 | > 49.9 | > 75.3 | 0.376 | 6.7 | > 23.6 | > 48.8 | > 45.1 | > 100 | > 100 | > 100
2 | COC(=O)c1c2c(c(C)[n+]([O-])c1C)C(=O)C=C(NCc1ccc(Cl)cc1)C2=O | 1.85 | 4.64 | 1.29 | 2.78 | 0.233 | 1.91 | 2.95 | 8.2 | 1.93 | 4.09 | 0.267 | 0.98 | 0.271 | > 26.6 | 1.65 | 3.03
3 | COC(=O)C1=CN(CC2=CC(=O)C(C)=CC2=O)C=C(C(=O)OC)C1c1cccc(OC)c1OC | 42.8 | > 61.5 | 18.7 | 36.3 | 6.69 | 22.2 | 8.35 | 27.1 | 2.68 | 17.1 | 18.6 | 55.2 | 41.1 | > 100 | > 100 | > 100
4 | Cc1ccc(NC(=O)c2ccnc(C(F)(F)F)c2)cc1-c1cc(OCCO)nc(N2CCOCC2)c1 | 6.39 | > 100 | 1.09 | 28.3 | 2.99 | 80.1 | 6.66 | > 100 | 0.196 | 4.78 | 2.28 | 17.8 | 0.413 | 14.8 | 1.46 | 7.29
5 | COc1ccc(C2CC(=O)Nc3c2c(C)nn3-c2nc3ccccc3[nH]2)cc1 (stereo not drawn) | 3.23 | 7.83 | 4.52 | > 70.1 | 3.55 | > 57.4 | 4.08 | > 38.9 | 2.34 | 6.72 | 3.11 | > 34 | 3.47 | > 30.4 | 2.36 | 9.12
6 | CC1CCC2(OC1)OC1CC3C4CC=C5CC(OC6OC(CO)C(OC7OC(C)C(OC8OC(C)C(O)C(O)C8O)C(O)C7O)C(O)C6OC6OC(C)C(O)C(O)C6O)CCC5(C)C4CCC3(C)C1C2C (stereo not drawn) |  | 2.31 |  | 2.39 |  | 2.79 |  | 2.68 |  | 1.9 |  | 3.25 |  | 2.2 |  | 1.64
7 | C=C1C(=O)O[C@H]2[C@H]1CC/C(COC(=O)NCCc1ccc(OC)cc1)=C\CC[C@@]1(C)O[C@@H]21 | 23 | 65.8 | 2.65 | 8.27 | 1.72 | 3.55 | 2.73 | 7.62 | 1.99 | 6.19 | 1.89 | 4.79 | 2.15 | 4.71 | 4.09 | 16.6
8 | O=C(CNC(=O)c1cccc2ccccc12)Nc1ccccc1Oc1cccc(O)c1 | 13 | > 25 | > 25 | > 25 | 17.4 | > 25 | > 25 | > 25 | > 25 | > 25 | 4.51 | > 25 | 21.4 | > 25 | 3.3 | > 25
9 | CCN(CC)c1ccc(/C=N/NC(=O)c2ccc(Nc3ccnc(C(F)(F)F)c3)cc2)c(O)c1 | 0.324 | 8.36 | 0.38 | 4.75 | 0.142 | 2.56 | 0.42 | > 100 | 1.05 | > 100 | 0.326 | > 100 | 0.339 | 1.68 | 0.152 | 3.41
10 | Cc1c(C(=O)/C=C/c2ccc(O)cc2)nnn1-c1ccnc2c(C(F)(F)F)cccc12 | 15.1 | 72.5 | > 100 | > 100 | 31.5 | > 100 | 9.28 | 73.4 | 34.5 | > 100 | 23.5 | > 100 | 3.36 | 30.1 | 8.81 | 68.2
11 | O=C(O)CC(Cc1ccc2c(c1)OCO2)C(=O)O (stereo not drawn) |  | > 100 |  | > 100 |  | > 100 |  | > 100 |  | > 100 |  | > 100 |  | > 100 |  | > 100
12 | CCN(CC)CCC(=O)Nc1cccc2c1C(=O)c1c(c(O)c3ccccc3c1O)C2=O | 85.3 | > 100 | 14.6 | 30 | 4.63 | 38.5 | 20.9 | 40.9 | 0.237 | 8.56 | 6.77 | 22.9 | 19.3 | > 100 | 2.11 | 10.8
13 | CC(=O)OCC(=O)[C@@]1(O)[C@H](C)C[C@H]2[C@@H]3C=C(C)C4=Cc5c(cnn5-c5ccc(F)cc5)C[C@]4(C)[C@H]3[C@@H](O)C[C@@]21C | 1.29 | 4.57 | 1.41 | 4.57 | 2.5 | 9.97 | 1.91 | 6.03 |  | 5.87 | 1.89 | 6.24 | 1.32 | 3.07 | 1.19 | 4.14
14 | COc1ccc(/C=C/C(=O)c2ccc(Nc3ncnc4ccccc34)cc2)cc1OC | 4.23 | 35.5 | 39.6 | > 100 | 13.6 | > 100 | 8.29 | 62.9 | 2.05 | 52.7 | 2.43 | 14.3 | 3.21 | 12.1 | 5.19 | 48.3
15 | COC(=O)Nc1ccc2ccc3c(NC(=O)OC)ccc4ccc1c2c43 (tested in a mixture with another compound) | 11.6 | > 50 | 13.9 | > 50 | 6.68 | 15 | 16.9 | > 50 | 1.62 | 14.1 | 27.1 | > 50 | 4.31 | > 50 | 12.6 | > 50

From PubChem BioAssay (NCI)
